In general, melting point refers to the temperature of the solid-liquid transition. For orientation: EC50 means the concentration at which the effect is half-maximal.

Consider 14 molecules from US6780431B1, “Substituted benzylthiazolidine-2,4-dione derivatives” (Kyorin Pharmaceutical Co., Ltd., priority 1999, dated 2004).

In series [1] the target is T1, human type PPARα ligand-binding domain fused with yeast transcription factor DNA-binding domain (Homo sapiens, UniProt Q07869).
T1 sequence (Q07869 239-466 limits assumed): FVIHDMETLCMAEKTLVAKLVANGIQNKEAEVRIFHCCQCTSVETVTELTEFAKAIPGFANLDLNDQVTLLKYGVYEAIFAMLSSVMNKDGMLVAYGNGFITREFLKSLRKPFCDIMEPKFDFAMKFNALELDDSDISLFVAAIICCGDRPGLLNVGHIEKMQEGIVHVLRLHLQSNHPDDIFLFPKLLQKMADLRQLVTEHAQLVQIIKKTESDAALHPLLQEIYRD
In words: Test of transactivation on PPARα (CHO cells, reporter plasmid, CAT activity).
Method: (§1) Test of Transactivation on Peroxisome Proliferator-activated Receptors α and β
(§2) After 24 hours, CAT activity and β-galactosidase activity were measured.

Series [2] deals with T2, human PPARγ ligand-binding domain fused with yeast transcription factor DNA-binding domain (Homo sapiens, UniProt P37231).
T2 sequence (P37231 238-503 limits assumed): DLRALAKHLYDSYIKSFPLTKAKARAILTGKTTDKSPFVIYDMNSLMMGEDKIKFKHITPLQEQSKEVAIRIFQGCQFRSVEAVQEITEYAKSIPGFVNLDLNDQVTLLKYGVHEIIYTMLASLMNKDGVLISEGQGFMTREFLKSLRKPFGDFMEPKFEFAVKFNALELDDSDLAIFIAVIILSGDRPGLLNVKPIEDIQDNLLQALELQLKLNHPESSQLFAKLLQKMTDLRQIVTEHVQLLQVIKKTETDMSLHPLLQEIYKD
In words: Test of transactivation on PPARγ (CHO cells, reporter plasmid, CAT activity).
Method: as §1, §2

Like-named read-outs stand apart in the source and are kept apart here.

For `COc1ccc(CC2SC(=O)NC2=O)cc1C(=O)NCc1ccc([N+](=O)[O-])cc1` (stereo not drawn) [Example 1, N-[(4-Nitrophenyl)methyl]-5-[(2,4-dioxothiazolidin-5-yl)methyl]-2-methoxybenzamide], the melting point lay in the range of 236.5 to 238.5 °C. The same molecule came in with an EC50 in series [1] of 530 nM. The molecule further yielded an EC50 in series [2] of 1600 nM. With `CCCCC/C=C\C/C=C\C=C\[C@@H](O)C/C=C\CCCC(=O)O` [(8S)-HETE, reference compound], the EC50 in series [1] (read-out: Transactivation PPARα EC50, CHO cells, 24 hours, CAT activity with β-galactosidase internal standard) was found to be 1300 nM. `COc1ccc(CC2SC(=O)NC2=O)cc1C(=O)NCc1cccc(OC(F)(F)F)c1` (stereo not drawn) [Example 4]: the EC50 in series [1] came out at 180 nM; in series [2], 360 nM. As to `COc1ccc(CC2SC(=O)NC2=O)cc1C(=O)NCc1ccc(Cl)cc1` (stereo not drawn) [Example 3], the melting point was 199 to 201 °C. The same molecule yielded an EC50 in series [1] of 260 nM. This molecule also gave an EC50 in series [2] of 400 nM.

Consider `COc1ccc(CC2SC(=O)NC2=O)cc1C(=O)NCc1ccc(Cl)c(Cl)c1` (stereo not drawn) [Example 9], for which the EC50 in series [1] was 700 nM; in series [2], 1100 nM. Turning to `CCCOc1ccc(CNC(=O)c2cc(CC3SC(=O)NC3=O)ccc2OC)cc1` (stereo not drawn) [Example 7], the EC50 in series [1] amounted to 110 nM; in series [2] it was 1800 nM. The molecule `COc1ccc(CC2SC(=O)NC2=O)cc1C(=O)NCc1ccc(Cl)cc1Cl` (stereo not drawn) (hydrate or solvate) [Example 8] registered a melting point of 188 to 189 °C. Consider `COc1ccc(CC2SC(=O)NC2=O)cc1C(=O)NCc1ccc(Br)cc1` (stereo not drawn) [Example 2], for which the melting point lay within 198 to 200 °C. In series [1], this molecule yielded an EC50 of 490 nM. In series [2], the EC50 was 290 nM. Regarding `COc1ccc(CC2SC(=O)NC2=O)cc1C(=O)NCc1ccc(Cl)cc1Cl` (stereo not drawn) [Example 8], the concentration giving a half-maximal response (EC50) is 220 nM in series [1] and 280 nM in series [2]. `COc1ccc(CC2SC(=O)NC2=O)cc1C(=O)NCc1ccc(OC(C)C)cc1` (stereo not drawn) (hydrate or solvate) [Example 6] showed a melting point of 79 to 81.5 °C.

In turn, `CCCOc1ccc(CNC(=O)c2cc(CC3SC(=O)NC3=O)ccc2OC)cc1` (stereo not drawn) (hydrate or solvate) [Example 7] registered a melting point of 132 to 133 °C. `COc1ccc(CC2SC(=O)NC2=O)cc1C(=O)NCc1ccc(Cl)c(Cl)c1` (stereo not drawn) (hydrate or solvate) [Example 9] came in with a melting point of 181 to 182 °C. `COc1ccc(CC2SC(=O)NC2=O)cc1C(=O)NCc1ccc(OC(C)C)cc1` (stereo not drawn) [Example 6]: the EC50 in series [1] stood at 760 nM; in series [2], 110 nM. As to `CCOc1ccc(CNC(=O)c2cc(CC3SC(=O)NC3=O)ccc2OC)cc1` (stereo not drawn) [Example 5], the melting point lay within 130 to 132 °C. In addition, in series [1], the EC50 came out at 430 nM. The EC50 in series [2] came to 300 nM.
